According to ChEMBL document CHEMBL1201862, “PubChem BioAssay data set” (2004):
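Method: 48-hour compound exposure of cells in 96-well plates, five concentrations, linear interpolation of endpoints. GI50 marks 50% less growth.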 Activity calls are given as the source filed them. No stated cut-off is given here; in the data, active = GI50 up to about 1.1 µM and inactive = higher.

Tests used:
Assay in all cases: growth of human tumour cells (NCI), 48 h
[1] = system: U-251
[2] = system: EKVX
[3] = system: HOP-62
[4] = system: A549
[5] = system: SNB-19
[6] = system: LXFL 529
[7] = system: OVCAR-8
[8] = system: SF-295
[9] = system: M14
[10] = system: HOP-18
[11] = system: HCT-116
[12] = system: IGROV-1
[13] = system: SK-MEL-2
[14] = system: TK-10
[15] = system: HCC 2998
[16] = system: KM-20L2
[17] = system: HL-60
[18] = system: RXF 393
[19] = system: UACC-62
[20] = system: DLD-1
[21] = system: DMS-114
[22] = system: HCT-15
[23] = system: UACC-257
[24] = system: COLO 205
[25] = system: CAKI-1
[26] = system: NCI-H23
[27] = system: SK-MEL-28
[28] = system: UO-31
[29] = system: DMS-273
[30] = system: ACHN
[31] = system: SNB-78
[32] = system: NCI-H226
[33] = system: NCI-H460
[34] = system: SW-620
[35] = system: OVCAR-3
[36] = system: SN12C
[37] = system: HOP-92
[38] = system: A498
[39] = system: OVCAR-5
[40] = system: KM12
[41] = system: XF498
[42] = system: SK-MEL-5
[43] = system: Malme-3M
[44] = system: SF-268
[45] = system: RXF 631
[46] = system: SNB-75
[47] = system: NCI-H522
[48] = system: MOLT-4
[49] = system: 786-0
[50] = system: OVCAR-4
[51] = system: HT-29
[52] = system: SF-539
[53] = system: M19-MEL
[54] = system: SK-OV-3
[55] = system: BT-549
[56] = system: RPMI-8226
[57] = system: MCF7
[58] = system: T47D
[59] = system: MDA-MB-231
[60] = system: Hs-578T
[61] = system: MDA-MB-435
[62] = system: K562
[63] = system: DU-145
[64] = system: SR
[65] = system: MDA-N
[66] = system: NCI/ADR-RES
[67] = system: CCRF-CEM
[68] = system: PC-3
[69] = system: LOX IMVI

In the case of `Cc1ccc(NC(=O)C2C(=O)N(c3ccc(C)c(C)c3)C(=O)C2N=N)cc1C` (configuration not stated), the GI50 [1] is reported as 95.9 µM (inactive), the GI50 [2] is reported as > 100 µM (inactive) and the GI50 [3] is reported as > 100 µM (inactive). For the same compound, the GI50 [4] was 58.9 µM (inactive), the GI50 [5] was > 100 µM (inactive) and the GI50 [6] was > 100 µM (inactive). For the same compound, the GI50 [7] was 99.5 µM (inactive), the GI50 [8] was 65 µM (inactive) and the GI50 [9] was > 100 µM (inactive). For the same compound, the GI50 [10] was > 100 µM (inactive), the GI50 [11] was > 100 µM (inactive) and the GI50 [12] was 97.1 µM (inactive). The GI50 [13] was > 100 µM (inactive), the GI50 [14] was > 100 µM (inactive) and the GI50 [15] was > 100 µM (inactive). The GI50 [16] was > 100 µM (inactive), the GI50 [17] was > 100 µM (inactive) and the GI50 [18] was > 100 µM (inactive). For the same compound, the GI50 [19] was > 100 µM (inactive), the GI50 [20] was > 100 µM (inactive) and the GI50 [21] was 61.5 µM (inactive). For the same compound, the GI50 [22] was 74.6 µM, the GI50 [23] was > 100 µM (inactive) and the GI50 [24] was > 100 µM (inactive). For the same compound, the GI50 [25] was > 100 µM (inactive), the GI50 [26] was 74.5 µM (inactive) and the GI50 [27] was > 100 µM (inactive). The GI50 [28] was > 100 µM (inactive), the GI50 [29] was 86.5 µM (inactive) and the GI50 [30] was 90.4 µM (inactive). The GI50 [31] was > 100 µM (inactive), the GI50 [32] was > 100 µM (inactive) and the GI50 [33] was 89.7 µM (inactive). The GI50 [34] was > 100 µM (inactive), the GI50 [35] was > 100 µM (inactive) and the GI50 [36] was > 100 µM (inactive). For the same compound, the GI50 [37] was 47.9 µM (inactive), the GI50 [38] was > 100 µM (inactive) and the GI50 [39] was > 100 µM (inactive). The GI50 [40] was > 100 µM (inactive), the GI50 [41] was > 100 µM (inactive) and the GI50 [42] was 67 µM (inactive). For the same compound, the GI50 [43] was > 100 µM (inactive), the GI50 [44] was > 100 µM (inactive) and the GI50 [45] was > 100 µM (inactive). For the same compound, the GI50 [46] was > 100 µM (inactive), the GI50 [47] was 38.1 µM (inactive) and the GI50 [48] was > 100 µM (inactive). For the same compound, the GI50 [49] was > 100 µM (inactive), the GI50 [50] was > 100 µM (inactive) and the GI50 [51] was > 100 µM (inactive). The GI50 [52] was > 100 µM (inactive), the GI50 [53] was > 100 µM (inactive) and the GI50 [54] was > 100 µM (inactive).
For `O=C1C2CCN(CC2)C1CN1CCOCC1` (configuration not stated), the GI50 [1] was 11 µM (inactive), the GI50 [2] was 17.8 µM (inactive) and the GI50 [3] was 18.5 µM (inactive). For the same compound, the GI50 [4] was 19.7 µM (inactive), the GI50 [5] was 18.7 µM (inactive) and the GI50 [55] was 2.28 µM (inactive). For the same compound, the GI50 [6] was 2 µM (inactive), the GI50 [7] was 5.02 µM (inactive) and the GI50 [56] was 2.13 µM (inactive). For the same compound, the GI50 [8] was 19.4 µM (inactive), the GI50 [9] was 2.96 µM (inactive) and the GI50 [10] was 7.59 µM (inactive). For the same compound, the GI50 [11] was 1.87 µM (inactive), the GI50 [12] was 19.3 µM (inactive) and the GI50 [57] was 2.9 µM (inactive). The GI50 [13] was 17.5 µM (inactive), the GI50 [58] was 1.92 µM (inactive) and the GI50 [14] was 6.82 µM (inactive). For the same compound, the GI50 [15] was 15.7 µM (inactive), the GI50 [16] was 18.2 µM (inactive) and the GI50 [17] was 2.74 µM (inactive). The GI50 [59] was 24.7 µM (inactive), the GI50 [18] was 2.25 µM (inactive) and the GI50 [19] was 16.1 µM (inactive). For the same compound, the GI50 [20] was 1.65 µM (inactive), the GI50 [22] was 2.18 µM and the GI50 [60] was 29 µM (inactive). For the same compound, the GI50 [23] was 4.33 µM (inactive), the GI50 [24] was 1.79 µM (inactive) and the GI50 [61] was 15.5 µM (inactive). The GI50 [62] was 6.73 µM (inactive), the GI50 [25] was 2.16 µM (inactive) and the GI50 [26] was 9.95 µM (inactive). For the same compound, the GI50 [27] was 3.79 µM (inactive), the GI50 [63] was 6.47 µM (inactive) and the GI50 [28] was 3.84 µM (inactive). For the same compound, the GI50 [29] was 11.8 µM (inactive), the GI50 [30] was 2.01 µM (inactive) and the GI50 [31] was 20.7 µM (inactive). The GI50 [32] was 13.6 µM (inactive), the GI50 [64] was 6.1 µM (inactive) and the GI50 [33] was 17.7 µM (inactive). The GI50 [34] was 1.72 µM (inactive), the GI50 [35] was 2.14 µM (inactive) and the GI50 [65] was 5.75 µM (inactive). The GI50 [36] was 4.05 µM (inactive), the GI50 [37] was 1.9 µM (inactive) and the GI50 [38] was 16.8 µM (inactive). For the same compound, the GI50 [39] was 5.53 µM (inactive), the GI50 [40] was 16.6 µM (inactive) and the GI50 [41] was 5.05 µM (inactive). The GI50 [42] was 17.1 µM (inactive), the GI50 [66] was 1.96 µM (inactive) and the GI50 [67] was 6.98 µM (inactive). For the same compound, the GI50 [43] was 1.8 µM (inactive), the GI50 [44] was 13.7 µM (inactive) and the GI50 [45] was 16.9 µM (inactive). The GI50 [46] was 17 µM (inactive), the GI50 [68] was 20 µM (inactive) and the GI50 [47] was 0.689 µM (active). The GI50 [48] was 2.33 µM (inactive), the GI50 [49] was 1.93 µM (inactive) and the GI50 [50] was 4.04 µM (inactive). The GI50 [51] was 7.73 µM (inactive), the GI50 [52] was 15.4 µM (inactive) and the GI50 [69] was 5.16 µM (inactive). For the same compound, the GI50 [53] was 13.4 µM (inactive) and the GI50 [54] was 17.2 µM (inactive).
